In PMC7504051, “Ilimaquinone Induces the Apoptotic Cell Death of Cancer Cells by Reducing Pyruvate Dehydrogenase Kinase 1 Activity” (International Journal of Molecular Sciences, 2020):

Columns and labels:
[1] = target: T1, pyruvate dehydrogenase kinase 1 (PDK1) (Homo sapiens, UniProt Q15118); experiment: radiolabelled (α-32P)ATP binding to bead-bound purified PDK1, scintillation counting, unlabelled ATP as competitor
T1 construct: His-tagged PDK1

[2] = target: T1, pyruvate dehydrogenase kinase 1 (PDK1); experiment: isothermal titration calorimetry (MicroCal AutoITC200); supported by (α-32P)ATP displacement from purified PDK1; format: binding

T1 sequence (Q15118 29-436): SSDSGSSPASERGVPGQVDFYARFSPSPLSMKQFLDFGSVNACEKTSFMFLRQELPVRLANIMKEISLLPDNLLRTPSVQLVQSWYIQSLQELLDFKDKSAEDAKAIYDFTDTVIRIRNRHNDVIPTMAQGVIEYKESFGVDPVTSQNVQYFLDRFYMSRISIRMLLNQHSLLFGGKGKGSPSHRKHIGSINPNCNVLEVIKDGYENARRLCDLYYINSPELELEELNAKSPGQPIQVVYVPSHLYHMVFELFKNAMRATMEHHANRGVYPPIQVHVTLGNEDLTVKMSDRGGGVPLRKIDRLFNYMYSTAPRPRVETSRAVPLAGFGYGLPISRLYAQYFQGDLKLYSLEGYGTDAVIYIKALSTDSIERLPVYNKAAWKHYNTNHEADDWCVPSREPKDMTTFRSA

## Nc1ncnc2c1ncn2[C@@H]1O[C@H](COP(=O)(O)OP(=O)(O)OP(=O)(O)O)[C@@H](O)[C@H]1O [ATP]
[1]
  radiolabelled (α-32P)ATP binding to bead-bound purified PDK1, scintillation coun: The binding of ATP to PDK1 in the presence of IQ was determined using α^32-labeled ATP.

## C=C1CCC[C@H]2[C@](C)(CC3=C(O)C(=O)C=C(OC)C3=O)[C@@H](C)CC[C@]12C [IQ, ilimaquinone]
[2]
  Kd: 14.6 µM
